Measured values reported in patent US20260034135A1, “USE OF N6-BENZYLAMINOPURINE AS AN APPETITE SUPPRESSANT” (THE GOVERNING COUNCIL OF THE UNIVERSITY OF TORONTO, priority 2022, published 2026).

What was measured:
[1] = Intraperitoneal insulin tolerance test (ITT); type: in vivo, CD-1 mice
Protocol: All protocols using mice were approved by the University Animal Care Committee of the University of Toronto and were performed in accordance with the Canadian Council on Animal Care. Animal experiments were performed in three separate animal facilities: Medical Sciences Building (MSB), Centre for Cellular and Biomolecular Research (CCBR) and the Biological Sciences Facility (BSF) due to ongoing construction and housing changes. Facilities and dates are indicated in each experimental cohort. N6-benzylaminopurine (BAP; also called N6-benzyladenine) was obtained from Sigma (B3408, cell culture grade in powder form; CAS number 1214-39-7). Male and female CD-1 mice aged 6-7 weeks were acquired from Charles Rivers and acclimated on a chow diet for one week prior to experimentation. Mice were then weight-matched and placed on either a 60% high fat diet (HFD) or sucrose-matched control diet for 4 weeks (from Research Diets: 60% HFD D12492 and the sucrose-matched control diet […]). After 3 weeks on the diet, mice were acclimated for one week to the drinking apparatus, a 50 mL canonical tube with a drinking tube. After 4 weeks on the diet, the mice were again weight-matched and randomly assigned to either the control or BAP group. […] The average dosages achieved using this method are as follows: male HFD (200 mg/kg/day), male control (157 mg/kg/day), female HFD (189 mg/kg/day), and female control (129.9 mg/kg/day). The mice were exposed continuously to the solutions for a total of 33 days. One week prior to the end of the experiment (day 28), the mice were fasted for 4 hr and underwent intraperitoneal insulin tolerance testing (ITT). After 33 days, the mice were sacrificed, and their tissues were collected. RNA was isolated from the collected hypothalamic and used to quantify gene expression via qRT-PCR. Male mice were placed on a 60% HFD for 8 weeks prior to the ITT and GTT analyses. At 4 weeks, treatment with BAP or vehicle was introduced on a daily basis in the honey emulsion as described above. The mice were then briefly fasted to determine the response to insulin or glucose. For the intraperitoneal insulin tolerance test (ITT), mice were transferred to clean cages without food and fasted for 4 hours. The mice were weighed after 3 hours of fasting and these weights were used to determine optimal insulin dosage (1 IU/kg). The appropriate amount of insulin was aliquoted. After 4 hours of fasting, blood glucose was measured via tail vein using a standard glucometer. This value was recorded as the 0-minute timepoint. The mice were intraperitoneal injected with their aliquoted amount of insulin and returned to their cage. Blood glucose was measured via tail vein 15, 30, and 60 minutes after insulin injection. Mice were provided with 20% glucose solution and removed from ITT if hypoglycemia was observed. Upon completion of ITT, mice were returned to cages with food and water and monitored for adverse effects.

Npy, Agrp, Pomc = assay: Hypothalamic feeding neuropeptide expression in mice by qRT-PCR; type: in vivo, CD-1 mice
Protocol: All protocols using mice were approved by the University Animal Care Committee of the University of Toronto and were performed in accordance with the Canadian Council on Animal Care. Animal experiments were performed in three separate animal facilities: Medical Sciences Building (MSB), Centre for Cellular and Biomolecular Research (CCBR) and the Biological Sciences Facility (BSF) due to ongoing construction and housing changes. Facilities and dates are indicated in each experimental cohort. N6-benzylaminopurine (BAP; also called N6-benzyladenine) was obtained from Sigma (B3408, cell culture grade in powder form; CAS number 1214-39-7). Male and female CD-1 mice aged 6-7 weeks were acquired from Charles Rivers and acclimated on a chow diet for one week prior to experimentation. Mice were then weight-matched and placed on either a 60% high fat diet (HFD) or sucrose-matched control diet for 4 weeks (from Research Diets: 60% HFD D12492 and the sucrose-matched control diet […]). After 3 weeks on the diet, mice were acclimated for one week to the drinking apparatus, a 50 mL canonical tube with a drinking tube. After 4 weeks on the diet, the mice were again weight-matched and randomly assigned to either the control or BAP group. […] The average dosages achieved using this method are as follows: male HFD (200 mg/kg/day), male control (157 mg/kg/day), female HFD (189 mg/kg/day), and female control (129.9 mg/kg/day). The mice were exposed continuously to the solutions for a total of 33 days. One week prior to the end of the experiment (day 28), the mice were fasted for 4 hr and underwent intraperitoneal insulin tolerance testing (ITT). After 33 days, the mice were sacrificed, and their tissues were collected. RNA was isolated from the collected hypothalamic and used to quantify gene expression via qRT-PCR. […] All mice were kept on the 60% HFD throughout the exposure period. The male mice were fed their respective emulsion for 11, 14 or 27 days (as indicated), and the female mice were fed for 12 or 36 days (as indicated). On day 12, the one cohort of male mice underwent general anesthetic for the purpose of post-experiment Bruker scanning. The male mice were then fed their assigned emulsion 2 hr prior to sacrificing and tissue collection. […] Hypothalamic collected from the mice were then used to isolate RNA and quantify gene expression using quantitative reverse transcription polymerase chain reaction (qRT-PCR). For cell culture experiments, total RNA was isolated using PureLink RNA isolation kit (Thermofisher Scientific, Burlington, ON, Canada) according to the manufacturer's instruction with on column DNase step (PureLink DNAse kit) or DNase I treatment to remove genomic DNA. For mouse experiments, total RNA was isolated using mirVana PARIS RNA and native protein isolation kit (Thermofisher Scientific). […] Quantitative reverse transcription polymerase chain reaction (RT-qPCR) was performed with 12.5 ng of cDNA amplified with Platinum SYBR green qPCR SuperMix-UDG with ROX on an Applied Biosystems Prism 7900HT or PowerTrack Green Master Mix on an Applied Biosystems QuantStudio 5 and gene specific primers as per manufacturer's instructions (Table 1). Data was analyzed using […] and normalized to reference gene, either 60S ribosomal protein L7 (Rpl7) or Histone 3a (His).

[2] = female CD-1, 60% HFD, BAP in drinking water 33 days
[3] = male CD-1, HFD, BAP emulsion 11 days, fed 2 hr prior to sacrifice, cohort CCBR
[4] = male CD-1, HFD, BAP emulsion 14 days, cohort BSF
[5] = male CD-1, HFD, BAP emulsion, 28 days cohort BSF (27 days per FIG. 22)
[6] = male CD-1, sucrose-matched control diet, BAP in drinking water 33 days

c1ccc(CNc2ncnc3nc[nH]c23)cc1 [BAP, N6-benzylaminopurine]
fasting blood glucose with BAP (ITT) ([1]; female CD-1, 60% HFD, BAP emulsion, one week prior to sacrifice, 4 hr fast (data not shown)): no significant differences
fasting blood glucose with BAP ([1]; female CD-1, BAP in drinking water, ITT one week prior to sacrifice, 4 hr fast): no significant differences
insulin sensitivity (ip insulin tolerance test) ([1]; female CD-1, HFD, BAP in drinking water, after 28 days of exposure): do not exhibit enhanced insulin sensitivity
fasting blood glucose vs HFD without BAP ([1]; male CD-1, 60% HFD, BAP in drinking water, ITT at day 28, 4 hr fast): significantly lower fasting blood glucose levels
insulin sensitivity (blood glucose after ip insulin tolerance test) ([1]; male CD-1, 60% HFD, after 28 days of daily oral BAP exposure): improved glucose tolerance
hypothalamic Npy, Agrp, and Pomc expression (Npy, Agrp, Pomc; female CD-1, 60% HFD, 300 mg/kg BAP emulsion 36 days, cohort BSF): no changes
hypothalamic expression of feeding neuropeptides (Npy, Agrp, Pomc; female CD-1, 60% HFD, BAP emulsion 12 days, fed 16 hr prior to sacrifice, cohort CCBR (data not shown)): no significant changes
hypothalamic Agrp mRNA expression (Npy, Agrp, Pomc; [2]): no significant changes
hypothalamic Npy mRNA expression (Npy, Agrp, Pomc; [2]): no significant changes
hypothalamic Pomc mRNA expression (Npy, Agrp, Pomc; [2]): decreased
hypothalamic feeding neuropeptide expression (Npy, Agrp, Pomc) (Npy, Agrp, Pomc; female CD-1, sucrose-matched control diet, BAP in drinking water 33 days, trend to increased Npy and AgRP): do not have significant changes
hypothalamic feeding-related neuropeptide expression (Npy, Agrp, Pomc) vs control (Npy, Agrp, Pomc; male CD-1, 60% HFD, BAP in drinking water 33 days): did not have any significant changes
hypothalamic Agrp mRNA expression (Npy, Agrp, Pomc; [3]): significantly increased
hypothalamic Npy mRNA expression (Npy, Agrp, Pomc; [3]): significantly increased
hypothalamic Pomc mRNA expression (Npy, Agrp, Pomc; [3]): no significant changes
hypothalamic Agrp expression (Npy, Agrp, Pomc; [4]): modest increase
hypothalamic Npy expression (Npy, Agrp, Pomc; [4]): modest increase
hypothalamic Pomc expression (Npy, Agrp, Pomc; [4]): no change
hypothalamic Agrp expression (Npy, Agrp, Pomc; [5]): modest increase
hypothalamic Npy expression (Npy, Agrp, Pomc; [5]): modest increase
hypothalamic Pomc expression (Npy, Agrp, Pomc; [5]): no change
hypothalamic AgRP expression vs control (Npy, Agrp, Pomc; [6]): significantly higher
hypothalamic Npy expression vs control (Npy, Agrp, Pomc; [6]): significantly higher
hypothalamic Pomc mRNA expression vs control (Npy, Agrp, Pomc; [6]): no change
